The results in this text go back to patent US20260138961A1, “MODULATORS OF MITOCHONDRIAL DNA REPLICATION” (Pretzel Therapeutics, Inc., priority 2022, published 2026).

Each structure is given as a SMILES string. Where only a bound is given, the exact number is not on record here.

This assay has as its target T1, POLγA:A467T (Homo sapiens, UniProt P54098, A467T).
T1 sequence (P54098 1-1239 A467T): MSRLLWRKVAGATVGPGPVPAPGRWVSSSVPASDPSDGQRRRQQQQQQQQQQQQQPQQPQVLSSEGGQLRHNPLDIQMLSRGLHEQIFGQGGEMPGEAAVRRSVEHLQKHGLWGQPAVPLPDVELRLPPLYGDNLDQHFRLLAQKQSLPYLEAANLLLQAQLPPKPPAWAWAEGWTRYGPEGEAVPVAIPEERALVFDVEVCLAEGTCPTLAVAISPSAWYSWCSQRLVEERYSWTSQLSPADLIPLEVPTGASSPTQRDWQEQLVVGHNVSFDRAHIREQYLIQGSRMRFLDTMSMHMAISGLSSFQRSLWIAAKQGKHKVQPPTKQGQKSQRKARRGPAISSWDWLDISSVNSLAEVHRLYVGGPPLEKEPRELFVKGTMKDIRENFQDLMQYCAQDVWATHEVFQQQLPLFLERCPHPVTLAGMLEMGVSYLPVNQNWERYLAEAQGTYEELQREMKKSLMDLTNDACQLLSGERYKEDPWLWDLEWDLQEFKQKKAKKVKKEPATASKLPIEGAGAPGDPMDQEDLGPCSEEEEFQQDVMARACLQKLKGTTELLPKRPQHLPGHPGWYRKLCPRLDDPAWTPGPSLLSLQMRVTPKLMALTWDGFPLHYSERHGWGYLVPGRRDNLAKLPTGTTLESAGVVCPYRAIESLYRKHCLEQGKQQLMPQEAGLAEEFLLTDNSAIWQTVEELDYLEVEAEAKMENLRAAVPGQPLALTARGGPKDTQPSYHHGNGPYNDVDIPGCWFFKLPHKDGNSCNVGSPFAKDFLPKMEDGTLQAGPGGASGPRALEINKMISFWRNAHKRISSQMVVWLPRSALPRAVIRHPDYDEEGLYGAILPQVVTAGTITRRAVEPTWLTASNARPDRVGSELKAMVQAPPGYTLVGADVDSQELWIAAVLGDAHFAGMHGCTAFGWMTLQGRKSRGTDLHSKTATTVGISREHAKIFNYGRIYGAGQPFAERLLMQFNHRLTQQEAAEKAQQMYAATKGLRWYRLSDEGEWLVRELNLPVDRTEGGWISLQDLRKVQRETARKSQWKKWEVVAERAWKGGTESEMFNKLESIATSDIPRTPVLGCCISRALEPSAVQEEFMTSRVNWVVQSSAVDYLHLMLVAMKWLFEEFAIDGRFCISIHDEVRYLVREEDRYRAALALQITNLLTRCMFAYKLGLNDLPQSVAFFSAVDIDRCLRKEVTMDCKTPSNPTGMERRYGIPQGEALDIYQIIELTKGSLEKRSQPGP
T1 sequence (Q9UHN1 1-485 partner): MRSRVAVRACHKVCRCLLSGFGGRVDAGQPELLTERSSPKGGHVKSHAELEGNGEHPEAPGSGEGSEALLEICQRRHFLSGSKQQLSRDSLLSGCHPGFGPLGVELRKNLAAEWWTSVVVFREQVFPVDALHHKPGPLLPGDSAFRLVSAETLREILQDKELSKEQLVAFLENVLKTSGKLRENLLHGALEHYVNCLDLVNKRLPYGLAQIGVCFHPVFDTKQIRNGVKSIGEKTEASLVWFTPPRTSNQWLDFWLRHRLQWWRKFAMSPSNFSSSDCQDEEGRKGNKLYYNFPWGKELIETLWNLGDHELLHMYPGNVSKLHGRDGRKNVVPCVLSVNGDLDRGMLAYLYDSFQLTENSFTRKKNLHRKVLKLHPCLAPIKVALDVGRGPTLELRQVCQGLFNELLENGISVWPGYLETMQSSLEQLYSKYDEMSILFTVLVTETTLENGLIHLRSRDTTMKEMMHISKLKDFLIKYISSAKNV
The assay is described as follows: DNA polymerization assay, POLγA:A467T mutant. The assay is classed as biochemical. To be noted: stimulation of polymerase activity, primed M13mp18 ssDNA, 37° C. 2 hours; read-out: A467T AC50. How it is done: DNA Polymerization Assay to Monitor Effects on Human Wildtype POLγ and Four Disease-Causing Mutant Variants of Human POLγ.
The ability of small molecules to stimulate the polymerase activity of POLγ was analyzed in a quantitative fluorescence SYBR Green I assay with fluorescence intensity (FI) readout.
In the presence of dNTPs, wild type human POLγ and mutant derivatives thereof were incubated with single-stranded, circular M13mp18 ssDNA hybridized to a short DNA oligonucleotide that functions as a primer for initiation of DNA synthesis. POLγ and mutant derivatives thereof will extend the primer and use the M13mp18 molecule as a template to synthesize long stretches of double-stranded DNA. SYBR Green I, which is a double-stranded DNA-binding dye, was used to quantify formation of double-stranded DNA in the reaction. When bound to double-stranded DNA, SYBR Green I fluorescence increases by up to 100-fold.
The assay was performed in the 384-well plate format. Upon addition of compounds, changes in double-stranded DNA synthesis activity can be monitored by following effects on fluorescent intensity.
The reactions also contained the accessory POLγB subunit, and the human mitochondrial single-stranded DNA binding protein (mtSSB).
The DNA template mixture used in the assay contained 0.5 nM primed M13 mp18 ssDNA, 400 nM mtSSB, 0.1 mM Tris-HCl (pH 8.0), 0.1 mM dNTP, 10 mM MgCl2, 0.1 mg/mL BSA, 1 mM TCEP solution, and 0.02% Triton X-100. The DNA template mixture for the wild type protein contained either 100 μM dNTP, 1 μM dNTP, or 0.1 μM dNTP, designated in Table 2 as 100 μM, 1 μM, and 0.1 μM, respectfully.
Microplates with compounds (0.1 μL in each well) to be tested in the assay were prepared from 10 mM compound stocks in 100% DMSO, and equal amounts of DMSO without any compound were added to positive and negative control wells.
The protein mixture was dispensed (5 μL into each well) into compound plates and incubated at 37° C. for 15 minutes. After incubation, 5 μL of the DNA template mixture was dispensed into each well. The plates were then incubated at 37° C. for 2 hours.
During incubation, a combined stop buffer and detection reagent solution was prepared. The buffer contained 25 mM EDTA (pH 8.0), 0.02% Triton X-100, and SYBR Green I [Invitrogen] diluted 10,000× (for fluorescent readout). EDTA will stop the enzymatic reaction by chelating magnesium ions.
For orientation: AC50 means the midpoint of the concentration-response curve, whichever way the signal moves. Consider `Cc1cc(S(=O)(=O)Nc2cccc(C(=O)N(C)C(C)CO)c2)c(C)cc1Cl` (single isomer, unassigned) [Example 14, 3-((4-chloro-2,5-dimethylphenyl)sulfonamido)-N-(1-hydroxypropan-2-yl)-N-methylbenzamide], for which the AC50 came out at 28 µM. As for `Cc1cc(S(=O)(=O)Nc2nc(-c3ccccc3)no2)c(C)cc1Cl` [Example 143, 4-chloro-2,5-dimethyl-N-(3-phenyl-1,2,4-oxadiazol-5-yl)benzenesulfonamide], the AC50 is above 100 µM. For the compound `Cc1cc(S(=O)(=O)Nc2cccc(C(=O)N(C(C)C)C3COC3)c2)c(C)cc1Cl` [Example 112, 3-((4-chloro-2,5-dimethylphenyl)sulfonamido)-N-isopropyl-N-(oxetan-3-yl)benzamide], the AC50 is above 100 µM. Next, `Cc1cc(S(=O)(=O)Nc2cccc(-c3nccn3C)c2)c(C)cc1Cl` [Example 19, 4-chloro-2,5-dimethyl-N-(3-(1-methyl-1H-imidazol-2-yl)phenyl)benzenesulfonamide]: 11 µM. In the case of `Cc1cc(S(=O)(=O)Nc2cccc(C(=O)N(C)C)c2)c(C)cc1Cl` [Example 12, 3-((4-chloro-2,5-dimethylphenyl)sulfonamido)-N,N-dimethylbenzamide], the AC50 stood at 45 µM. Consider `Cc1ccc(C)c(S(=O)(=O)Nc2cccc(C(=O)N3CCCCC3)c2)c1` [Example 3, 2,5-dimethyl-N-(3-(piperidine-1-carbonyl)phenyl)benzene sulfonamide], for which the AC50 was 48 µM. Next, `O=S(=O)(Nc1csc(-c2ccccc2)n1)c1ccc(C(F)(F)F)cc1F` [Example 141, 2-fluoro-N-(2-phenylthiazol-4-yl)-4-(trifluoromethyl)benzenesulfonamide]: above 100 µM; `O=S(=O)(Nc1csc(-c2ccccc2)n1)c1ccc(C(F)(F)F)cc1` [Example 127, N-(2-phenylthiazol-4-yl)-4-(trifluoromethyl)benzenesulfonamide]: above 100 µM.

For the compound `Cc1cc(S(=O)(=O)Nc2cccc(-c3ncc(C(=O)N(C)C)s3)c2)c(C)cc1Cl` [Example 94, 2-(3-((4-chloro-2,5-dimethylphenyl)sulfonamido)phenyl)-N,N-dimethylthiazole-5-carboxamide], the AC50 is above 100 µM. On to `Cc1ccc(S(=O)(=O)Nc2csc(-c3ccccc3)n2)c(C)c1` [Example 123, 2,4-dimethyl-N-(2-phenylthiazol-4-yl)benzenesulfonamide], for which the AC50 was above 100 µM. On to `Cc1cc(S(=O)(=O)Nc2nsc(-c3ccccc3)n2)c(C)cc1Cl` [Example 131, 4-chloro-2,5-dimethyl-N-(5-phenyl-1,2,4-thiadiazol-3-yl)benzenesulfonamide], for which the AC50 is above 100 µM.

Take `O=S(=O)(Nc1csc(-c2ccccc2)n1)c1cccnc1` [Example 121, N-(2-phenylthiazol-4-yl)pyridine-3-sulfonamide]: the AC50 was above 100 µM. For the compound `O=S(=O)(Nc1csc(-c2ccccc2)n1)c1cccc2nccnc12` [Example 128, N-(2-phenylthiazol-4-yl)quinoxaline-5-sulfonamide], the AC50 was above 100 µM. Next, `Cc1cc(S(=O)(=O)Nc2cccc(C(=O)N(CC(N)=O)C3CCCC3)c2)c(C)cc1Cl` [Example 113, N-(2-amino-2-oxoethyl)-3-((4-chloro-2,5-dimethylphenyl)sulfonamido)-N-cyclopentylbenzamide]: above 100 µM. Next, `Cc1cc(S(=O)(=O)Nc2cccc(C(=O)N3CCC[C@@H]3C)c2)c(C)cc1Cl` [Example 133, (S)-4-chloro-2,5-dimethyl-N-(3-(2-methylpyrrolidine-1-carbonyl)phenyl)benzenesulfonamide]: above 100 µM; `Cc1cc(S(=O)(=O)N[C@H]2CCCN(C(=O)c3ccccc3)C2)c(C)cc1Cl` [Example 129, (S)-N-(1-benzoylpiperidin-3-yl)-4-chloro-2,5-dimethylbenzenesulfonamide]: above 100 µM. For the compound `Cc1cc(S(=O)(=O)Nc2cccc(-c3ncc(C(N)=O)s3)c2)c(C)cc1Cl` [Example 92, 2-(3-((4-chloro-2,5-dimethylphenyl)sulfonamido)phenyl) thiazole-5-carboxamide], the AC50 is above 100 µM. Consider `Cc1cnc(-c2ccc(Cl)c(NS(=O)(=O)c3cc(C)c(Cl)cc3C)c2)s1` [Example 102, 4-chloro-N-(2-chloro-5-(5-methylthiazol-2-yl)phenyl)-2,5-dimethylbenzenesulfonamide], for which the AC50 is above 100 µM.

For `Cc1cc(S(=O)(=O)Nc2cccc(-c3ncc(C#N)s3)c2)c(C)cc1Cl` [Example 96, 4-chloro-N-(3-(5-cyanothiazol-2-yl)phenyl)-2,5-dimethylbenzenesulfonamide], the AC50 turned out to be 24 µM.

As for `Cc1ccc(C)c(S(=O)(=O)Nc2cccc(C(=O)NCC3CC3)c2)c1` [Example 4, N-(cyclopropylmethyl)-3-((2,5-dimethylphenyl)sulfonamido)benzamide], the AC50 was 52 µM. With `Cc1cc(S(=O)(=O)Nc2cccc(-c3ncc(-c4nnn[nH]4)s3)c2)c(C)cc1Cl` [Example 97, N-(3-(5-(1H-tetrazol-5-yl)thiazol-2-yl)phenyl)-4-chloro-2,5-dimethylbenzenesulfonamide] the figure was above 100 µM. Turning to `Cc1ccc(C)c(S(=O)(=O)Nc2cccc(C(=O)N[C@@H](C)C3CC3)c2)c1` [Example 8, (S)-N-(1-cyclopropylethyl)-3-((2,5-dimethylphenyl)sulfonamido)benzamide], the AC50 worked out at 39 µM. As to `Cc1ccc(C)c(S(=O)(=O)Nc2csc(-c3ccccc3)n2)c1` [Example 134, 2,5-dimethyl-N-(2-phenylthiazol-4-yl)benzenesulfonamide], the AC50 came out at 3 µM. Next, `Cc1cc(Cl)ccc1S(=O)(=O)Nc1csc(-c2ccccc2)n1` [Example 135, 4-chloro-2-methyl-N-(2-phenylthiazol-4-yl)benzenesulfonamide]: 32 µM.
